Measured values published in patent publication US4751302A, “Indazole derivatives” (priority 1982, dated 1988).

Columns and labels:
[1] = test system: Carrageenin edema in rat's paw; test: Carrageenin Edema Test in Rat's Paw (anti-inflammatory activity, Table 1); assay type: in vivo; settings: 100 mg/kg oral; for inhibition in vivo at 100 mg/kg: hydrochloride, rat; for anti-inflammatory activity in comparison with compounds of the invention: Carrageenin edema
Method: An anti-inflammatory activity was measured by orally administering 100 mg/kg of a hydrochloride of the indazole derivative of this invention as set forth in Table 1 to an animal in accordance with the standard method of Carrageenin Edema Test in Rat's Paw described in C. A. Winter et al., Proc. Soc. Exp. Biol. Med., 111, 544 (1962).

in vivo = settings: mouse, ip, intraperitoneal, hydrochloride, male ddy mice

Row | Structure (SMILES) | inhibition in vivo at 100 mg/kg [1] | LD50 (in vivo) | anti-inflammatory activity in comparison with compounds of the invention [1]
1 | CCN(CC)CCCn1nc(N)c2c(Cl)cccc21 [(1), 1-(3-Diethylaminopropyl)-3-amino-4-chloroindazole] | 58% | 171 mg/kg | –
2 | CCN(CC)CCCn1nc(N)c2cc(Cl)ccc21 [(2), 1-(3-Diethylaminopropyl)-3-amino-5-chloroindazole] | 55% | 192 mg/kg | –
3 | CCN(CC)CCCn1nc(N)c2ccc(Cl)cc21 [(3), 1-(3-Diethylaminopropyl)-3-amino-6-chloroindazole] | 54% | 241 mg/kg | –
4 | CCN(CC)CCCn1nc(N)c2cccc(Cl)c21 [(4), 1-(3-Diethylaminopropyl)-3-amino-7-chloroindazole] | 59% | 273 mg/kg | –
5 | CCN(CC)CCCn1nc(N)c2cc(N)ccc21 [(5), 1-(3-Diethylaminopropyl)-3,5-diaminoindazole] | 59% | 311 mg/kg | –
6 | CCN(CC)CCCn1nc(N)c2cc(OC)ccc21 [(6), 1-(3-Diethylaminopropyl)-3-amino-5-methoxyindazole] | 56% | 188 mg/kg | –
7 | CCN(CC)CCCn1nc(N)c2cc(C)ccc21 [(7), 1-(3-Diethylaminopropyl)-3-amino-5-methylindazole] | 58% | 221 mg/kg | –
8 | CCCCN(CCCC)CCCn1nc(N)c2cc(Cl)ccc21 [(8), 1-(3-Di-n-butylaminopropyl)-3-amino-5-chloroindazole] | 56% | 231 mg/kg | –
9 | CC(CCn1nc(N)c2cc(Cl)ccc21)N(C)C (stereo not drawn) [(9), 1-(3-Dimethylaminobutyl)-3-amino-5-chloroindazole] | 37% | 113 mg/kg | –
10 | CCN(CC)C(CCn1nc(N)c2cc(Cl)ccc21)CC(C)C (stereo not drawn) [(10), 1-(3-Diethylamino-5-methylhexyl)-3-amino-5-chloroindazole] | 49% | 239 mg/kg | –
11 | Nc1nn(CCCN2CCCCC2)c2ccc(Cl)cc12 [(11), 1-(3-Piperidinopropyl)-3-amino-5-chloroindazole] | 54% | 211 mg/kg | –
12 | Nc1nn(CCCCCCN2CCCCC2)c2ccc(Cl)cc12 [(12), 1-(6-Piperidinohexyl)-3-amino-5-chloroindazole] | 28% | 337 mg/kg | –
13 | CC(CCn1nc(N)c2cc(Cl)ccc21)N1CCCCC1 (stereo not drawn) [(13), 1-(3-Piperidinobutyl)-3-amino-5-chloroindazole] | 49% | 310 mg/kg | –
14 | CC(C)CC(CCn1nc(N)c2cc(Cl)ccc21)N1CCCCC1 (stereo not drawn) [(14), 1-(3-Piperidino-5-methylhexyl)-3-amino-5-chloroindazole] | 34% | 301 mg/kg | –
15 | CC1CCCCN1CCCn1nc(N)c2cc(Cl)ccc21 (stereo not drawn) [(15), 1-[3-(2-Methylpiperidino)propyl]-3-amino-5-chloroindazole] | 50% | 250 mg/kg | –
16 | CC1CCCC(C)N1CCCn1nc(N)c2cc(Cl)ccc21 (stereo not drawn) [(16), 1-[3-(2,6-Dimethylpiperidino)propyl]-3-amino-5-chloroindazole] | 33% | 214 mg/kg | –
17 | Nc1nn(CCCN2CCC(O)CC2)c2ccc(Cl)cc12 [(17), 1-[3-(4-Hydroxypiperidino)propyl]-3-amino-5-chloroindazole] | 37% | 251 mg/kg | –
18 | Nc1nn(CCCN2CCC(Cl)CC2)c2ccc(Cl)cc12 [(18), 1-[3-(4-Chloropiperidino)propyl]-3-amino-5-chloroindazole] | 66% | 278 mg/kg | –

Row | Structure (SMILES) | inhibition in vivo at 100 mg/kg [1] | LD50 (in vivo) | anti-inflammatory activity in comparison with compounds of the invention [1]
19 | Nc1nn(CCCN2CCCCCC2)c2ccc(Cl)cc12 [(19), 1-(3-Homopiperidinopropyl)-3-amino-5-chloroindazole] | 38% | 251 mg/kg | –
20 | CN1CCN(CCCn2nc(N)c3cc(Cl)ccc32)CC1 [(20), 1-[3-(4-Methylpiperazino)propyl]-3-amino-5-chloroindazole] | 26% | 278 mg/kg | –
21 | Nc1nn(CCCN2CCCC2)c2ccc(Cl)cc12 [(21), 1-(3-Pyrrolidinopropyl)-3-amino-5-chloroindazole] | 39% | 311 mg/kg | –
22 | Nc1nn(CCCN2CCOCC2)c2ccc(Cl)cc12 [(22), 1-(3-Morpholinopropyl)-3-amino-5-chloroindazole] | 46% | 388 mg/kg | –
23 | CCN(CC)CCCn1nc(N)c2c(O)cccc21 [(23), 1-(3-Diethylaminopropyl)-3-amino-4-hydroxyindazole] | 56% | 179 mg/kg | –
24 | CCN(CC)CCCn1nc(N)c2cc(O)ccc21 [(24), 1-(3-Diethylaminopropyl)-3-amino-5-hydroxyindazole] | 53% | 161 mg/kg | –
25 | CCN(CC)CCCn1nc(N)c2ccc(O)cc21 [(25), 1-(3-Diethylaminopropyl)-3-amino-6-hydroxyindazole] | 52% | 301 mg/kg | –
26 | CCN(CC)CCCn1nc(N)c2cccc(O)c21 [(26), 1-(3-Diethylaminopropyl)-3-amino-7-hydroxyindazole] | 57% | 297 mg/kg | –
27 | CCN(CC)CCCn1nc(N)c2cc(I)ccc21 [(27), 1-(3-Diethylaminopropyl)-3-amino-5-iodoindazole] | 57% | 281 mg/kg | –
28 | CCN(CC)CCCn1nc(N)c2cccc(I)c21 [(28), 1-(3-Diethylaminopropyl)-3-amino-7-iodoindazole] | 54% | 103 mg/kg | –
29 | CCN(CC)CCCn1nc(N)c2cc(N)cc(N)c21 [(29), 1-(3-Diethylaminopropyl)-3,5,7-triaminoindazole] | 56% | 104 mg/kg | –
30 | CCCCN(CCCC)CCCn1nc(N)c2cc(O)ccc21 [(30), 1-(3-Di-n-butylaminopropyl)-3-amino-5-hydroxyindazole] | 54% | 255 mg/kg | –
31 | CC(CCn1nc(N)c2cc(O)ccc21)N(C)C (stereo not drawn) [(31), 1-(3-Dimethylaminobutyl)-3-amino-5-hydroxyindazole] | 35% | 241 mg/kg | –
32 | CCN(CC)C(CCn1nc(N)c2cc(O)ccc21)CC(C)C (stereo not drawn) [(32), 1-(3-Diethylamino-5-methylhexyl)-3-amino-5-hydroxyindazole] | 47% | 251 mg/kg | –
33 | Nc1nn(CCCN2CCCCC2)c2ccc(O)cc12 [(33), 1-(3-Piperidinopropyl)-3-amino-5-hydroxyindazole] | 52% | 227 mg/kg | –
34 | CCCn1nc(N)c2ccccc21 [Compound C-1, 1-propyl-3-aminoindazole, reference compound] | 7% | – | little anti-inflammatory activity
35 | Nc1nn(CCc2ccccc2)c2ccccc12 [Compound C-2, 1-(2-phenylethyl)-3-aminoindazole, reference compound] | 7% | – | little anti-inflammatory activity
36 | Nc1n[nH]c2c(N)cccc12 [Compound C-3, 3,7-diaminoindazole, reference compound] | 6% | – | little anti-inflammatory activity
